Assay results reported in EP4252780A1, “BIOLOGICALLY ACTIVE MATERIAL CONJUGATE HAVING BIOTIN MOIETY, FATTY ACID MOIETY, OR COMBINATION THEREOF COUPLED THERETO” (priority 2020, dated 2022).
Non-standard residues stand in square brackets, D forms with d. No end group written: not given here. F14 = C20-Glu-EG2-EG2-MAL; B38 = not defined here; Aib = CC(C)(N)C(=O)O

Tests used:
[1] = body weight reduction and feed intake over 24 hours after oral administration; type: in vivo; details: oral administration to mice
[2] = body weight change after 2 weeks of subcutaneous administration in obese mouse model; type: in vivo; details: subcutaneous for 2 weeks, FIG. 10
Method: Conjugates 58 and 59 were subcutaneously administered for 2 weeks into an obese mouse model, then body weight changes were measured.

Substance	Weight loss (%) compared to untreated group [1]	body weight compared to the untreated group [2]
Conjugate 61: polypeptide SEQ ID NO 24; biotin moiety B38 at K1; fatty acid moiety F11 at K1 (K(B38)CNTATCATQRLANFLVHSSNNFGPILPPTNVGSNTY; ends and bridges not checked; also: fatty acid F11 also at K1, attachment order not given here)	-2.96 ± 4.22%	–
Conjugate 59: polypeptide SEQ ID NO 8; biotin moiety B38 at K12; fatty acid moiety F14 at C30 (H[Aib]QGTFTSDYSK(B38)YLDEQAAKEFVQWLMNTC(F14); reading uncertain)	–	substantially reduced
Polypeptide SEQ ID NO 26: amylin derivative KCNTATCATQRLADFLLRHSSPNFGAIPSSTNVGSRTY (KCNTATCATQRLADFLRHSSPNFGAIPSSTNVGSRTY; Amylin derivative) [reference compound]	-3.13 ± 1.05%	–
Conjugate 33: polypeptide SEQ ID NO 24; biotin moiety B38 at K1 (K(B38)CNTATCATQRLANFLVHSSNNFGPILPPTNVGSNTY; ends and bridges not checked)	-4.07 ± 1.30%	–
Polypeptide SEQ ID NO 30: amylin derivative RCNTATCATQRLADFLLRHSSNNFGAIPSSTNVGSKTY (RCNTATCATQRLADFLRHSSNNFGAIPSSTNVGSKTY; Amylin derivative) [reference compound]	-1.17 ± 0.76%	–
Polypeptide SEQ ID NO 28: amylin derivative KCNTATCATQRLADFLLRHSSNNFGAIPSSTNVGSRTY (KCNTATCATQRLADFLRHSSNNFGAIPSSTNVGSRTY; Amylin derivative) [reference compound]	-1.11 ± 0.84%	–
Polypeptide SEQ ID NO 24: amylin derivative KCNTATCATQRLANFLVHSSNNFGPILPPTNVGSNTY (Amylin derivative) [reference compound]	-2.63 ± 1.06%	–
